Assay results taken from patent publication US20230340012A1, “NATURAL AND SYNTHETIC COMPOUNDS FOR TREATING CANCER AND OTHER DISEASES” (PACIFIC ARROW LIMITED, priority 2009, published 2023).
Values after ≈ are worked out from the molar mass of the structure shown. Values joined by “and” are separate entries in the source; they are usually repeats but may differ in a detail not shown here. Identical values can stand only once.

Assays:
U2OS = assay: MTT assay, bone (U2OS); assay type: cell-based, human
Protocol: (§1) Cells. HTB-9 (bladder), HeLa-S3 (cervix), DU145 (prostate), H460 (lung), MCF-7 (breast), K562 (leukemia), HCT116 (colon), HepG2 (liver), U2OS (bone), T98G (brain), SK-MEL-5 (Skin) and OVCAR 3, ES2 (ovary), Pancreas (Capan), Mouth (KB), Kidney(A498).
(§2) MTT Assay. The procedure for MTT assay followed the method described by Carmichael et al. (1987) with modifications. The cells were seeded into a 96-well plate at for 24 hours before drug-treatment. The cells were then exposed to the drugs for 48, 72, or 96 hours. After the drug-treatment, MTT (0.5 mg/mL) was added to cultures and incubated for an hour. The formazan (product of the reduction of tetrazolium by viable cells) formed and was dissolved with DMSO and the O.D. at 490 nm, and was measured by an ELISA reader. The MTT level of the cells before drug-treatment was also measured (T0). The % cell-growth (%G) is calculated as: %G = (TD-T0 / TC-T0) x 100(1), where TC or TD represents O.D. readings of control or drug-treated cells. When T0 > TD, then the cytotoxicity (LC) expressed as % of the control is calculated as: %LC = (TD-T0 / T0) × 100(2).

H460 = assay: MTT assay, lung (H460); assay type: cell-based, human; settings: for IC50 of lung (H460): MTT
Protocol: as §1, §2
Methods: • A. Cells • -- H460 cells are derived from a Human Lung large cell carcinoma. Cells were grown in RPMI 1640 medium supplemented with 10% FCS, antibiotics and glutamine. 5000 cells were seeded in a well (96-welled plate) for one day before drug-treatment • B. Drug treatment: • -- Drug: Tig-S (stored as a 1000x stock solution in DMSO) was used. • -- Drug concentration used: from 0.15 - 20 ug/ml. • -- Drug-treatment was carried out for 1, 2 and 4 days. For the 4 days incubation, cells were fed with fresh medium (with drug) on day 2. • C. At the end of the drug-treatment, cytotoxic test was performed with MTT assay. Results: • 1. Tig-S inhibits H460 cells’ growth with the IC50 of drug 3 ug/ml. • 2. […] cells growth inhibition was observed beyond drug 5 ug/ml. • 3. No dead cell was found at drug concentration in 20 ug/ml.

ES2 = assay: MTT assay, ovary (ES2); assay type: cell-based, human
Protocol: as §1, §2
Method: A. Cells • -WI38 is a Normal Lung fibroblast. Cells were grown in MEM medium supplemented with 10% FCS, antibiotics and glutamine. 20 K cells were seeded per well (96-welled plate) for one day before drug-treatment • -ES2 is an Ovary Clear cells carcinoma. Cells were grown in RPMI-1640 medium supplemented with 10% FCS, antibiotics and glutamine. 10 K cells were seeded per well (96-welled plate) for one day before drug-treatment.
B. Drug treatment: • -Drug: Tig-S. stored as 1000x stock solution in DMSO. • -Drug concentration used: from 0.15 - 20 ug/ml. • -Drug-treatment was carried out for 2 days (ES2) or 6 days (WI38). For the 6 days incubation, cells were fed with fresh medium (with drug) on day 3 and 5.
C. At the end of the drug-treatment, cytotoxic test was performed with MTT assay.

HCT116 = assay: MTT assay, colon (HCT116); assay type: cell-based, human
Protocol: as §1, §2

Capan = assay: MTT assay, pancreas (Capan); assay type: cell-based, human
Protocol: as §1, §2
• A. Cells: Capan cells are derived from Human pancreas carcinoma (pancreas). Cells were grown in RPMI 1640 medium supplemented with 10% FCS, antibiotics and glutamine. 10000 cells were seeded in a well (96-welled plate) for one day before drug-treatment • B. Drug treatment: • -- Drug: Tig-S (stored as a 1000x stock solution in DMSO) was used. • -- Drug concentration used: from 0.15 - 20 ug/ml. • -- Drug-treatment was carried out for 3 days. • C. At the end of the drug-treatment, cytotoxic test was performed with MTT assay. The percentage of drug-treated cells’ growth as compared to those of the no drug control is determined.

DU145 = assay: MTT assay, prostate (DU145); assay type: cell-based, human
Protocol: as §1, §2

SK-Mel-5 = assay: MTT assay, skin (SK-Mel-5); assay type: cell-based, human
Protocol: as §1, §2

A498 = assay: MTT assay, kidney (A498); assay type: cell-based, human
Protocol: as §1, §2

MCF-7 = assay: MTT assay, breast (MCF-7); assay type: cell-based, human
Protocol: as §1, §2

HepG2 = assay: MTT assay, liver (HepG2); assay type: cell-based, human
Protocol: as §1, §2

K562 = assay: MTT assay, leukemia (K562); assay type: cell-based, human
Protocol: as §1, §2

HeLa = assay: MTT assay, cervix (HeLa); assay type: cell-based, human
Protocol: as §1, §2

ES2 cells = assay: Inhibition of cell adhesion, ES2; assay type: cell-based, human; settings: for ES2 cells attached to flasks compared to no drug controls / unattached cells alive: 5 ug/ml; for ES2 cells attached to flasks compared to no drug controls: 5 hours; for unattached cells alive: trypan Blue exclusion; for unattached cells alive / cells attached to flasks: ES2 or Hey8A; for cells attached to flasks: 10 ug/ml
Protocol: (§3) Methods and Results. ES2 or Hey8A cells were plated in T25 flasks with medium containing 5 ug/ml of compounds selected from structure (2A) including E4A-Tig-R, E4A-Tig-V, E4A-Tig-S, E4A-Tig-N, E4A-Tig-Q, E4A-Tig-T. Cultures were incubated for 5 hours. Attached cells were removed from flasks by trypsinization and the numbers/amounts were counted. Compared to no drug controls, 80 ± 4% of ES2 cells and 60 ± 4% of Hey8A cells were found attached to flasks under this condition. At 5 ug/ml of above compounds, over 90% of unattached cells are alive as determined by the trypan Blue exclusion assay and by their ability to re-attach to flasks when plating in medium without tested compounds. However, with 10 ug/ml tested compounds, less than 40% of cells attached to flasks and many of them are dead cells.

Hey8A cells = assay: Inhibition of cell adhesion, Hey8A; assay type: cell-based; settings: 5 ug/ml, 5 hours
Protocol: as §3

KB = assay: MTT assay, mouth (KB); assay type: cell-based, human
Protocol: as §1, §2

Compound	IC50 of bone (U2OS) (U2OS)	IC50 of lung (H460) (H460)	IC50 of colon (HCT116) (HCT116)	IC50 of pancreas (Capan) (Capan)	IC50 of prostate (DU145) (DU145)	IC50 of skin (SK-Mel-5) (SK-Mel-5)	IC50 of kidney (A498) (A498)	IC50 of breast (MCF-7) (MCF-7)	IC50 of liver (HepG2) (HepG2)	IC50 of leukemia (K562) (K562)	IC50 of cervix (HeLa) (HeLa)	ES2 cells attached to flasks compared to no drug controls (ES2 cells)	unattached cells alive (ES2 cells)	cells attached to flasks (ES2 cells)	Hey8A cells attached to flasks compared to no drug controls (Hey8A cells)	IC50 of ovary (ES2) (ES2; MTT)	IC50 of mouth (KB) (KB)	also measured
CC=C(C)C(=O)OCC1(C)C(O)CCC2(C)C1CCC1(C)C2CC=C2C3CC(C)(C)C(OC(=O)C(C)=CC)C(O)C3(CO)C(O)CC21C (stereo not drawn) [Tig-S]	5.2 µg/mL	5.6 µg/mL	6.6 µg/mL	2.9 µg/mL	4.3 µg/mL	5.8 µg/mL	4.8 µg/mL	6.3 µg/mL	8.5 µg/mL	4.3 µg/mL	7 µg/mL	80 ± 4%	over 90%	less than 40%	60 ± 4%	–	–	IC50, lung H460 cells growth (H460; 4 days): 3 µg/mL (≈ 4.47 µM); IC50, H460 cells' growth (H460; Experiment 32, treatment 1, 2 and 4 days): 3 µg/mL (≈ 4.47 µM); dead cells, H460 (H460; at 20 ug/ml): No dead cell; IC50, lung H460 cells growth (H460; one day): 3.4 µg/mL (≈ 5.07 µM); IC50, ES2 cells (ES2; 2 days drug treatment, MTT): 0.3 µg/mL (≈ 0.447 µM); IC100, ES2 cells (ES2; MTT OD after treatment equal to OD before treatment, 2 days): 0.16 to 0.3 µg/mL and 0.15 to 0.3 µg/mL; IC50 in ES2 cells (ES2; MTT assay with low doses of Tig-S): ~0.1 µg/mL (≈ 0.149 µM); % of the control cell growth, ES2 (ES2; at 10 ug/ml): 10%; MTT OD as % of the original value, ES2 (ES2; at 10 ug/ml): 12%; IC50, pancreas cancer (Capan) cells' growth (Capan; 3 days): about 1 ug/ml
CC=C(C)C(=O)OCC1(C)C(O)CCC2(C)C1CCC1(C)C2CC=C2C3CC(C)(C)C(O)C(OC(=O)C(C)=CC)C3(COC(=O)C(C)=CC)C(O)CC21C (stereo not drawn) [Tig-T]	20 µg/mL	21 µg/mL	23 µg/mL	10 µg/mL	16 µg/mL	22 µg/mL	15 µg/mL	20 µg/mL	26 µg/mL	9 µg/mL	18 µg/mL	80 ± 4%	over 90%	less than 40%	60 ± 4%	14 µg/mL	13 µg/mL	–
24,28-O-Tigloyl-3β,16α, 21β, 22a, 24β, 28-hexahydroxyolean-12-ene [Tig-R]	4.5 µg/mL	4.8 µg/mL	5.2 µg/mL	2.4 µg/mL	3.6 µg/mL	5.1 µg/mL	3.5 µg/mL	4.5 µg/mL	6 µg/mL	2 µg/mL	–	80 ± 4%	over 90%	less than 40%	60 ± 4%	2.8 ug/ml and about 2.8 ug/ml	3 µg/mL	–
CC=C(C)C(=O)OCC1(C)C(O)CCC2(C)C1CCC1(C)C2CC=C2C3CC(C)(C)C(O)C(O)C3(CO)C(O)CC21C (stereo not drawn) [Tig-N]	15 µg/mL	13 µg/mL	15 µg/mL	8 µg/mL	4.8 µg/mL	15 µg/mL	11 µg/mL	13 µg/mL	18 µg/mL	6 µg/mL	15 µg/mL	80 ± 4%	over 90%	less than 40%	60 ± 4%	9 µg/mL	9 µg/mL	–
